Results as given in patent US7223751B2, “Sulfonamide derivatives, intermediate thereof, its preparation methods, and pharmaceutical composition comprising the same” (Kolon Ind. Inc., priority 2001, dated 2007).

System: HUVEC (human umbilical vein endothelial cell) cells
Test: Tube formation activity on matrigel
Format: cell-based
Parameters: key: −: control; ±: tube almost resembles control; +: inhibition; ++: significant inhibition; +++: complete inhibition
Conditions: 16-24 hours
Protocol: In a culture flask previously coated with gelatin, HUVEC (human umbilical vein endothelial cell) cells cultured with a M199 medium (containing 20% FBS, 3 ng/ml bFGF, 100 μg/ml heparin) were treated with trypsin/EDTA, and then number of cells are counted so that number of cells may be 2×10^4 cells/well in a 96-well plate previously coated with matrigel. Samples were then added and cultured in a CO2 culture medium at 37° C. for 16-24 hours.

## 4-Cyclopropyl-1-(4-methoxy-benzenesulfonyl)-5-oxo-piperazine-2-hydroxamate [Example 17]
Concentration 5 μM
  Tube Formation: +
Concentration 50 μM
  Tube Formation: +
Concentration 100 μM
  Tube Formation: ++

## 1-Cyclopropyl-5-hydroxymethyl-4-(4-methoxy-benzenesulfonyl)-5-oxo-piperazin-2-one [Example 27]
Concentration 5 μM
  Tube Formation: ++
Concentration 50 μM
  Tube Formation: ++

## C#CCN1CC(C(=O)O)N(S(=O)(=O)c2ccc(-c3ccc(Br)cc3)cc2)CC1=O (centres unmarked) [Example 35, 1-(4′-Bromo-biphenyl-4-sulfonyl)-5-oxo-4-prop-2-ynyl-piperazine-2-carboxylic acid]
Concentration 0.5 μM
  Tube Formation: ++
Concentration 5 μM
  Tube Formation: ++
Concentration 50 μM
  Tube Formation: +++

## O=C(O)C1CN(Cc2ccccc2)C(=O)CN1S(=O)(=O)c1ccc(-c2ccc(Br)cc2)cc1 (centres unmarked) [Example 37, 4-Benzyl-1-(4′-bromo-biphenyl-4-sulfonyl)-5-oxo-piperazine-2-carboxylic acid]
Concentration 0.5 μM
  Tube Formation: ++
Concentration 5 μM
  Tube Formation: ++
Concentration 50 μM
  Tube Formation: +++

## COc1ccc(S(=O)(=O)N2CC(=O)N(CCN3CCCCC3)CC2C(=O)NO)cc1.Cl (centres unmarked) [Example 9, 1-(4-Methoxy-benzenesulfonyl)-5-oxo-4-(2-piperidin-1-yl-ethyl)-piperazine-2-hydroxamate hydrochloride]
Concentration 5 μM
  Tube Formation: −
Concentration 50 μM
  Tube Formation: ±

## CN(C)CCCN1CC(C(=O)O)N(S(=O)(=O)c2ccc(-c3ccc(Br)cc3)cc2)CC1=O (centres unmarked) [Example 43, 1-(4′-Bromo-biphenyl-4-sulfonyl)-4-(3-dimethylamino-propyl)-5-oxo-piperazine-2-carboxylic acid]
Concentration 0.5 μM
  Tube Formation: +
Concentration 5 μM
  Tube Formation: ++
Concentration 50 μM
  Tube Formation: ++

## 4-Allyl-1-(4-methoxy-benzenesulfonyl)-5-oxo-piperazine-2-hydroxamate [Example 21]
Concentration 5 μM
  Tube Formation: ±
Concentration 50 μM
  Tube Formation: +

## CCCCN1CC(C(=O)O)N(S(=O)(=O)c2ccc(OC)cc2)CC1=O (centres unmarked) [Example 26, 4-Butyl-1-(4-methoxy-benzenesulfonyl)-5-oxo-piperazine-2-carboxylic acid]
Concentration 5 μM
  Tube Formation: ±
Concentration 50 μM
  Tube Formation: +
Concentration 100 μM
  Tube Formation: ++

## CCCCCCCCN1CC(C(=O)O)N(S(=O)(=O)c2ccc(-n3cccc3)cc2)CC1=O (centres unmarked) [Example 58, 4-Octyl-5-oxo-1-(4-pyrrol-1-yl-benzenesulfonyl)-piperazine-2-carboxylic acid]
Concentration 0.5 μM
  Tube Formation: ±
Concentration 5 μM
  Tube Formation: ++
Concentration 50 μM
  Tube Formation: ++

## CCCCOCCCN1CC(C(=O)O)N(S(=O)(=O)c2ccc(-c3ccc(Br)cc3)cc2)CC1=O (centres unmarked) [Example 41, 1-(4′-Bromo-biphenyl-4-sulfonyl)-4-(3-butoxy-propyl)-5-oxo-piperazine-2-carboxylic acid]
Concentration 0.5 μM
  Tube Formation: ++
Concentration 5 μM
  Tube Formation: ++
Concentration 50 μM
  Tube Formation: +++

## COc1ccc(S(=O)(=O)N2CC(=O)N(CCN3CCOCC3)CC2C(=O)NO)cc1.Cl (centres unmarked) [Example 11, 1-(4-Methoxy-benzenesulfonyl)-4-(2-morpholin-4-yl-ethyl)-5-oxo-piperazine-2-hydroxamate hydrochloride]
Concentration 5 μM
  Tube Formation: ±
Concentration 50 μM
  Tube Formation: +

## COc1ccc(S(=O)(=O)N2CC(=O)N(Cc3ccccn3)CC2C(=O)NO)cc1.Cl (centres unmarked) [Example 13, 1-(4-Methoxy-benzenesulfonyl)-5-oxo-4-pyridin-2-yl-methyl-piperazine-2-hydroxamate hydrochloride]
Concentration 5 μM
  Tube Formation: ±
Concentration 50 μM
  Tube Formation: +
Concentration 100 μM
  Tube Formation: +

## 1-(4-Methoxy-benzenesulfonyl)-5-oxo-4-prop-2-ynyl-piperazine-2-hydroxamate [Example 23]
Concentration 5 μM
  Tube Formation: +
Concentration 50 μM
  Tube Formation: ++
Concentration 100 μM
  Tube Formation: +++
